# Measurements taken from patent US4795812A, “4-substituted-6-aryl-pyrimidine compounds” (The Upjohn Company, priority 1986, dated 1989).
# Columns and labels:
# [1] = tested on: L-1210 mouse leukemia cells; test: L-1210 tube dilution assay, inhibition of mouse leukemia cell growth in vitro; format: cell-based; details: in vitro
# Description: ID50 and ID90 refer to the concentration of compound needed to inhibit cell growth by 50 and 90 percent, respectively.
# [2] = tested on: P388 leukemia; test: In vivo P-388 mouse leukemia test (i.p.); details: for % ILS (% increase in life span of treated compared to control animals) / Weight Change: daily × 9, i.p.; for % ILS (% increase in life span of treated compared to control animals): Klucel suspension; for Weight Change: between days 1 and 5 after tumor inoculation
# Description: (§1) The P-388 mouse leukemia test is described in detail in a publication by G. L. Neil, et al, Cancer Treatment Reports 63, 1971-1978 (1979).
# (§2) ^a mg/kg/day, daily × 9, i.p., administered as a Klucel
# (§3) ^b % increase in life span of treated compared to control animals.
# (§4) ^c g/mouse between days 1 and 5 after tumor inoculation.
# (§5) The NCI-designated criteria of significant activity for synthetic agents in these 3 systems are: for P388, 20% ILS; L1210 and B16, 25% ILS.
# [3] = tested on: L-1210 leukemia; test: In vivo L-1210 leukemia test in mice (i.p.); parameters: species or system mouse; details: for % ILS (% increase in life span of treated compared to control animals) / Weight Change: i.p.-L1210, daily × 9, i.p.; for % ILS (% increase in life span of treated compared to control animals): Klucel suspension; for Weight Change: between days 1 and 5 after tumor inoculation
# Description: as §1, §2, §3, §4, §5
# [4] = tested on: B-16 melanoma; test: In vivo B-16 melanoma test in mice (i.p.); parameters: species or system mouse; details: for % ILS (% increase in life span of treated compared to control animals) / Weight Change: i.p.-B16, daily × 9, i.p.; for % ILS (% increase in life span of treated compared to control animals): Klucel suspension; for Weight Change: between days 1 and 5 after tumor inoculation
# Description: as §1, §2, §3, §4, §5
# [5] = tested on: E. coli; test: In vitro disk plate assay, E. coli; format: cell-based; details: 1 mg/ml in distilled water, 1/2 inch disk, 18 hours
# Experimental: (§6) The antibacterial spectrum of 4-(1-azindinyl)-6-phenyl-2-pyrimidinamine was determined in an in vitro disk plate assay. The assay procedure is as follows:
# (§7) A solution of 4-(1-aziridinyl)-6-phenyl-2-pyrimidinamine was prepared at 1 mg/ml in distilled water. Paper assay disks (1/2 inch) were dripped into the solution and spotted on seeded agar trays.
# [6] = tested on: S. schottmuelleri; test: In vitro disk plate assay, S. schottmuelleri; format: cell-based; details: medium B (Nutrient Agar); 1 mg/ml in distilled water, 1/2 inch disk, 18 hours
# Experimental: as §6, §7
# [7] = tested on: B. fragilis; test: In vitro disk plate assay, B. fragilis; format: cell-based; details: medium H (Schaedler Agar); 1 mg/ml in distilled water, 1/2 inch disk, 18 hours
# Experimental: as §6, §7
# [8] = tested on: S. lutea; test: In vitro disk plate assay, S. lutea; format: cell-based; details: 1 mg/ml in distilled water, 1/2 inch disk, 18 hours
# Experimental: as §6, §7
# [9] = tested on: S. pastorianus; test: In vitro disk plate assay, S. pastorianus; format: cell-based; details: medium G (Gray's Medium); 1 mg/ml in distilled water, 1/2 inch disk, 18 hours
# Experimental: as §6, §7
# [10] = tested on: P. vulgaris; test: In vitro disk plate assay, Proteus vulgaris; format: cell-based; details: medium B (Nutrient Agar); 1 mg/ml in distilled water, 1/2 inch disk, 18 hours
# Experimental: as §6, §7
# [11] = tested on: Ps. aeruginosa; test: In vitro disk plate assay, Ps. aeruginosa; format: cell-based; details: medium B (Nutrient Agar); 1 mg/ml in distilled water, 1/2 inch disk, 18 hours
# Experimental: as §6, §7
# [12] = tested on: S. aureus; test: In vitro disk plate assay, S. aureus; format: cell-based; details: medium B (Nutrient Agar); 1 mg/ml in distilled water, 1/2 inch disk, 18 hours
# Experimental: as §6, §7
# [13] = tested on: Rhodopseudomonas spheroides; test: In vitro disk plate assay, Rhodopseudomonas spheroides; format: cell-based; details: medium F (Plate Count Medium); 1 mg/ml in distilled water, 1/2 inch disk, 18 hours
# Experimental: as §6, §7
# [14] = tested on: K. pneumoniae; test: In vitro disk plate assay, K. pneumoniae; format: cell-based; details: medium A (Streptomycin Assay Agar); 1 mg/ml in distilled water, 1/2 inch disk, 18 hours
# Experimental: as §6, §7
# [15] = tested on: S. pyogenes; test: In vitro disk plate assay, S. pyogenes; format: cell-based, Streptococcus pyogenes; details: medium D (Brain Heart Infusion Agar); 1 mg/ml in distilled water, 1/2 inch disk, 18 hours
# Experimental: as §6, §7
# [16] = tested on: M. avium; test: In vitro disk plate assay, M. avium; format: cell-based; details: medium D (Brain Heart Infusion Agar); 1 mg/ml in distilled water, 1/2 inch disk, 18 hours
# Experimental: as §6, §7
# [17] = i.p.-P388, first series, 5 mg/kg/day
# [18] = i.p.-P388, first series, 10 mg/kg/day
# [19] = i.p.-P388, first series, 20 mg/kg/day
# [20] = i.p.-P388, first series, 40 mg/kg/day
# [21] = i.p.-P388, second series, 5 mg/kg/day
# [22] = i.p.-P388, second series, 10 mg/kg/day
# [23] = i.p.-P388, second series, 20 mg/kg/day
# [24] = i.p.-P388, second series, 40 mg/kg/day
smiles,measurement,setting,value
"Nc1nc(-c2ccccc2)cc(N2CC2)n1 [Example 2, 4-(1-aziridyl)-6-phenyl-2-pyrimidinamine]",inhibition of growth of L-1210 cells (in words),[1],inhibit the growth of L-1210 mouse leukemia cells in vitro
same,% ILS (% increase in life span of treated compared to control animals),[2]; [17],10%
same,Weight Change,[2]; [17],+1.8 g/mouse
same,% ILS (% increase in life span of treated compared to control animals),[2]; [18],11%
same,Weight Change,[2]; [18],+2.1 g/mouse
same,% ILS (% increase in life span of treated compared to control animals),[2]; [19],25%
same,Weight Change,[2]; [19],-0.7 g/mouse
same,% ILS (% increase in life span of treated compared to control animals),[2]; [20],47%
same,Weight Change,[2]; [20],-3.8 g/mouse
same,% ILS (% increase in life span of treated compared to control animals),[2]; [21],14%
same,Weight Change,[2]; [21],+1.8 g/mouse
same,% ILS (% increase in life span of treated compared to control animals),[2]; [22],11%
same,Weight Change,[2]; [22],+2.1 g/mouse
same,% ILS (% increase in life span of treated compared to control animals),[2]; [23],17%
same,Weight Change,[2]; [23],+0.5 g/mouse
same,% ILS (% increase in life span of treated compared to control animals),[2]; [24],26%
same,Weight Change,[2]; [24],-2.0 g/mouse
same,in vivo activity against P388 leukemia (in words),[2]; mice,demonstrated activity in vivo against P388 and L-1210 leukemias in mice
same,% ILS (% increase in life span of treated compared to control animals),[3]; 5 mg/kg/day,0%
same,Weight Change,[3]; 5 mg/kg/day,+1.2 g/mouse
same,% ILS (% increase in life span of treated compared to control animals),[3]; 10 mg/kg/day,0%
same,Weight Change,[3]; 10 mg/kg/day,+1.5 g/mouse
same,% ILS (% increase in life span of treated compared to control animals),[3]; 20 mg/kg/day,9%
same,Weight Change,[3]; 20 mg/kg/day,+0.6 g/mouse
same,% ILS (% increase in life span of treated compared to control animals),[3]; 40 mg/kg/day,24%
same,Weight Change,[3]; 40 mg/kg/day,-2.4 g/mouse
same,in vivo activity against L-1210 leukemia (in words),[3]; mice,demonstrated activity in vivo against P388 and L-1210 leukemias in mice
same,% ILS (% increase in life span of treated compared to control animals),[4]; 6.3 mg/kg/day,2%
same,Weight Change,[4]; 6.3 mg/kg/day,+1.2 g/mouse
same,% ILS (% increase in life span of treated compared to control animals),[4]; 12.5 mg/kg/day,4%
same,Weight Change,[4]; 12.5 mg/kg/day,+0.3 g/mouse
same,% ILS (% increase in life span of treated compared to control animals),[4]; 25 mg/kg/day,11%
same,Weight Change,[4]; 25 mg/kg/day,-0.5 g/mouse
same,% ILS (% increase in life span of treated compared to control animals),[4]; 50 mg/kg/day,7%
same,Weight Change,[4]; 50 mg/kg/day,-3.0 g/mouse
same,in vivo activity against B-16 melanoma (in words),[4]; mice,no in vivo activity in mice against B-16 melanoma
same,Zone of Inhibition,[5]; medium B (Nutrient Agar),0 mm
same,Zone of Inhibition,[5]; medium E (Synthetic Medium),0 mm
same,Zone of Inhibition,[6],0 mm
same,Zone of Inhibition,[7],23 mm
same,Zone of Inhibition,"[8]; S. lutea+, medium B (Nutrient Agar)",0 mm
same,Zone of Inhibition,"[8]; S. luteau, medium C (PenAssay Seed Agar)",0 mm
same,Zone of Inhibition,[9],0 mm
same,Zone of Inhibition,[10],0 mm
same,Zone of Inhibition,[11],0 mm
same,Zone of Inhibition,[12],0 mm
same,Zone of Inhibition,[13],18 mm
same,Zone of Inhibition,[14],0 mm
same,Zone of Inhibition,[15],21 mm
same,Zone of Inhibition,[16],0 mm
